Data on 1 molecule can be found in patent US9795677B2, “Method for reducing damage caused by free radicals” (Original BioMedicals Co., Ltd, priority 2012, dated 2017).

The subject of one series is NMRI mice. Nature of the series: Acute radiation protection in irradiated mice (WBC number). It counts as in vivo, mouse. To be noted: 8Gy; amifostine 6.25 mg/kg i.v. 30 min before irradiation; 30 days after treatment. How it is done:
Efficacy Result: In animal study, 30-day old NMRI mice weighing 20 to 30 g were tested for acute radiation protection. For radiation control group, mice were given 1, 4, and 8 Gy irradiation in 10 minutes, and for the standard treatment group, FDA-approved amifostine (6.25 mg/kg) was injected intravenously, and 30 minutes later the animals were given 8 Gy irradiation in 10 minutes. The 30 mins duration design is based on the short half-life of amifostine. A-01 indicates FePA with a formulation ratio of PEG-b-PGA:FeCl2.4H2O:amifostine=4:1:1 (w:w:w). The animals in the test group A-01 were administered intravenously with 37.5 mg/kg A-01 (containing the same amount of amifostine as used in the standard treatment group), and 120 minutes post injection, the animals were given 8 Gy radiation in 10 minutes. WBC number and survival rates were analyzed 30 days after treatment.

The conditions of series [1]: cited from earlier work.
Series [2] has as its system mouse embryonic liver cells (BNLCL.2). Nature of the series: Comet Assay of UV-irradiated cells (DNA damage). It counts as cell-based. The note with it: BNLCL.2 cells, UVB 100 J·m-2; treatment given 30 minutes or 2 hr before UV irradiation; API and FeP 40 folds, FePA 20 folds dilution with PBS. The method, then:
UV irradiation of the cells was used in this experiment to simulate the effects of radiation on normal cells, and the results were evaluated by Comet Assay. Comet Assay is a fast, sensitive and convenient method for examining DNA damage and is widely used in studying DNA damage caused by radiation, examining DNA crosslink, evaluating genotoxicity of drugs and identifying cell apoptosis, etc. […]
The mouse embryonic liver cells (BNLCL.2) were inoculated onto a 35 mm culture dish at the density of 3*10^5 cell/mL and cultured for at least 20 hours before subjected to the test. […] The treated cells were then collected with a scraper, counted, and centrifuged at 1,200 rpm for 5 minutes. […]
The bottle containing LM agarose was placed in 95° C. water for 5 minutes with loosed cap and then transferred to a 37° C. water bath for at least 20 minutes. […] The resulting images were analyzed using the epifluorescence microscope (the maximum excitation and emission wavelength of SYBR®Green I are 494 nm and 521 nm, respectively.) The fluorescence filter was also adjusted accordingly for efficient lighting) 200×.

As to `NCCCNCCSP(=O)(O)O` [Amifostine], in the series with NMRI mice, the WBC is on record as 3.04-3.80 1000/cm^3. The “amifostine remaining after i.v. injection” value in series [1] (6 minutes after i.v. injection) is reported as 10%. In series [1] (patients), the distribution half-life entry is recorded as “less than 1 minute” and the elimination half-life is 8 min. In series [2], the “average percentage of damaged DNA in the tail of the Comet (% TDNA) compared with the positive control group (UV)” value is listed as “significantly reduced”.
